Results on 24 compounds are retold here after BindingDB's records for doi:10.1016/s0960-894x(02)00205-6 (Southern Methodist University, 2002).

This assay is described as follows: Inhibitory activity against class A TEM-1 beta-lactamase.

For `CN1CCN(C(=O)/C=C/C2=C(C(=O)O)N3C(=O)/C(=C/c4ccccn4)[C@H]3S(=O)(=O)C2)CC1` [Sodium; (R)-3-[(E)-3-(4-methyl-piperazin-1-yl)-3-oxo-propenyl]-5,5,8-trioxo-7-[1-pyridin-2-yl-meth-(Z)-ylidene]-5lambda*6*-thia-1-aza-bicyclo[4.2.0]oct-2-ene-2-carboxylate], half-maximal inhibition (IC50) required 53 nM.

As to `O=C(O)C1=C(Br)CS(=O)(=O)[C@@H]2/C(=C\c3ccccn3)C(=O)N12` [Sodium; (R)-3-bromo-5,5,8-trioxo-7-[1-pyridin-2-yl-meth-(Z)-ylidene]-5lambda*6*-thia-1-aza-bicyclo[4.2.0]oct-2-ene-2-carboxylate], the IC50 (usually the midpoint of a concentration-inhibition curve) turned out to be 791 nM.

As to `O=C(/C=C/C1=C(C(=O)O)N2C(=O)/C(=C/c3ccccn3)[C@H]2S(=O)(=O)C1)NCCO` [Sodium; (R)-3-[(E)-2-(2-hydroxy-ethylcarbamoyl)-vinyl]-5,5,8-trioxo-7-[1-pyridin-2-yl-meth-(Z)-ylidene]-5lambda*6*-thia-1-aza-bicyclo[4.2.0]oct-2-ene-2-carboxylate], half-maximal inhibition (IC50) required 70 nM.

As for `O=C(/C=C/C1=C(C(=O)O)N2C(=O)/C(=C/c3ccccn3)[C@H]2S(=O)(=O)C1)Nc1ccc(O)cc1` [Sodium; (R)-3-[(E)-2-(4-hydroxy-phenylcarbamoyl)-vinyl]-5,5,8-trioxo-7-[1-pyridin-2-yl-meth-(Z)-ylidene]-5lambda*6*-thia-1-aza-bicyclo[4.2.0]oct-2-ene-2-carboxylate], the IC50 is 110 nM.

Take `O=C(O)C1=C(F)CS(=O)(=O)[C@@H]2/C(=C\c3ccccn3)C(=O)N12` [Sodium; (R)-3-fluoro-5,5,8-trioxo-7-[1-pyridin-2-yl-meth-(Z)-ylidene]-5lambda*6*-thia-1-aza-bicyclo[4.2.0]oct-2-ene-2-carboxylate]: the IC50 was found to be 1840 nM.

Regarding `N=C(N)NCCNC(=O)C=CC1=C(C(=O)O)N2C(=O)C(=Cc3ccccn3)[C@H]2S(=O)(=O)C1` [Sodium; (R)-3-[(E)-2-(2-guanidino-ethylcarbamoyl)-vinyl]-5,5,8-trioxo-7-[1-pyridin-2-yl-meth-(Z)-ylidene]-5lambda*6*-thia-1-aza-bicyclo[4.2.0]oct-2-ene-2-carboxylate], the IC50 was found to be 8.3 nM.

The compound `O=C(O)C1=C(C(=O)O)N2C(=O)/C(=C/c3ccccn3)[C@H]2S(=O)(=O)C1` [Disodium; (R)-3-carboxy-5,5,8-trioxo-7-[1-pyridin-2-yl-meth-(Z)-ylidene]-5lambda*6*-thia-1-aza-bicyclo[4.2.0]oct-2-ene-2-carboxylate] displayed an IC50 of 10400 nM.

Consider `CSC1=C(C(=O)O)N2C(=O)/C(=C/c3ccccn3)[C@H]2S(=O)(=O)C1` [Sodium; (R)-3-methylsulfanyl-5,5,8-trioxo-7-[1-pyridin-2-yl-meth-(Z)-ylidene]-5lambda*6*-thia-1-aza-bicyclo[4.2.0]oct-2-ene-2-carboxylate], for which the IC50 turned out to be 1060 nM.

The compound `O=C(O)C1=C(I)CS(=O)(=O)[C@@H]2/C(=C\c3ccccn3)C(=O)N12` [Sodium; (R)-3-iodo-5,5,8-trioxo-7-[1-pyridin-2-yl-meth-(Z)-ylidene]-5lambda*6*-thia-1-aza-bicyclo[4.2.0]oct-2-ene-2-carboxylate] showed an IC50 of 1280 nM.

Turning to `O=C(/C=C/C1=C(C(=O)O)N2C(=O)/C(=C/c3ccccn3)[C@H]2S(=O)(=O)C1)Nc1c(F)c(F)c(F)c(F)c1F` [Sodium; (R)-5,5,8-trioxo-3-((E)-2-pentafluorophenylcarbamoyl-vinyl)-7-[1-pyridin-2-yl-meth-(Z)-ylidene]-5lambda*6*-thia-1-aza-bicyclo[4.2.0]oct-2-ene-2-carboxylate], inhibition was half-maximal at 4280 nM (IC50). Against the preceding compound, the IC50 is about 3.3-fold higher.

`NC(=O)/C=C/C1=C(C(=O)O)N2C(=O)/C(=C/c3ccccn3)[C@H]2S(=O)(=O)C1` [Sodium; (R)-3-((E)-2-carbamoyl-vinyl)-5,5,8-trioxo-7-[1-pyridin-2-yl-meth-(Z)-ylidene]-5lambda*6*-thia-1-aza-bicyclo[4.2.0]oct-2-ene-2-carboxylate] registered an IC50 of 262 nM. This IC50 lies about 16-fold lower than the previous one.

For the compound `O=C(O)C1=C(c2cccs2)CS(=O)(=O)[C@@H]2/C(=C\c3ccccn3)C(=O)N12` [Sodium; (R)-5,5,8-trioxo-7-[1-pyridin-2-yl-meth-(Z)-ylidene]-3-thiophen-2-yl-5lambda*6*-thia-1-aza-bicyclo[4.2.0]oct-2-ene-2-carboxylate], the IC50 was found to be 3540 nM.

As for `O=C(O)C1=CCS(=O)(=O)[C@@H]2/C(=C\c3ccccn3)C(=O)N12` [Sodium; (R)-5,5,8-trioxo-7-[1-pyridin-2-yl-meth-(Z)-ylidene]-5lambda*6*-thia-1-aza-bicyclo[4.2.0]oct-2-ene-2-carboxylate], the half-inhibitory concentration (IC50) amounted to 18500 nM.

`O=C(O)C1=C(c2ccccc2)CS(=O)(=O)[C@@H]2/C(=C\c3ccccn3)C(=O)N12` [Sodium; (R)-5,5,8-trioxo-3-phenyl-7-[1-pyridin-2-yl-meth-(Z)-ylidene]-5lambda*6*-thia-1-aza-bicyclo[4.2.0]oct-2-ene-2-carboxylate] registered a half-inhibitory concentration (IC50) of 9140 nM.

Turning to `O=C(/C=C/C1=C(C(=O)O)N2C(=O)/C(=C/c3ccccn3)[C@H]2S(=O)(=O)C1)NCC(F)(F)F` [Sodium; (R)-5,5,8-trioxo-7-[1-pyridin-2-yl-meth-(Z)-ylidene]-3-[(E)-2-(2,2,2-trifluoro-ethylcarbamoyl)-vinyl]-5lambda*6*-thia-1-aza-bicyclo[4.2.0]oct-2-ene-2-carboxylate], the IC50 is 78 nM. Compared with the last compound, the IC50 is about 120-fold lower.

On to `O=C(O)C1=C(S(=O)(=O)c2ccccc2)CS(=O)(=O)[C@@H]2/C(=C\c3ccccn3)C(=O)N12` [Sodium; (R)-3-benzenesulfonyl-5,5,8-trioxo-7-[1-pyridin-2-yl-meth-(Z)-ylidene]-5lambda*6*-thia-1-aza-bicyclo[4.2.0]oct-2-ene-2-carboxylate], for which half-maximal inhibition (IC50) was put at 9.4 nM.

Regarding `O=C(/C=C/C1=C(C(=O)O)N2C(=O)/C(=C/c3ccccn3)[C@H]2S(=O)(=O)C1)NCc1ccccc1` [Sodium; (R)-3-((E)-2-benzylcarbamoyl-vinyl)-5,5,8-trioxo-7-[1-pyridin-2-yl-meth-(Z)-ylidene]-5lambda*6*-thia-1-aza-bicyclo[4.2.0]oct-2-ene-2-carboxylate], it took 1400 nM to reach half-maximal inhibition (IC50).

For `O=C(/C=C/C1=C(C(=O)O)N2C(=O)/C(=C/c3ccccn3)[C@H]2S(=O)(=O)C1)NO` [Sodium; (R)-3-((E)-2-hydroxycarbamoyl-vinyl)-5,5,8-trioxo-7-[1-pyridin-2-yl-meth-(Z)-ylidene]-5lambda*6*-thia-1-aza-bicyclo[4.2.0]oct-2-ene-2-carboxylate], the midpoint of inhibition, the IC50, lay at 7690 nM.

`O=C(O)C1=C(Sc2ccccc2)CS(=O)(=O)[C@@H]2/C(=C\c3ccccn3)C(=O)N12` [Sodium; (R)-5,5,8-trioxo-3-phenylsulfanyl-7-[1-pyridin-2-yl-meth-(Z)-ylidene]-5lambda*6*-thia-1-aza-bicyclo[4.2.0]oct-2-ene-2-carboxylate]: 12 nM corresponded to half-maximal inhibition (IC50).

Compound `NCCCNC(=O)/C=C/C1=C(C(=O)O)N2C(=O)/C(=C/c3ccccn3)[C@H]2S(=O)(=O)C1` [Sodium; (R)-3-[(E)-2-(3-amino-propylcarbamoyl)-vinyl]-5,5,8-trioxo-7-[1-pyridin-2-yl-meth-(Z)-ylidene]-5lambda*6*-thia-1-aza-bicyclo[4.2.0]oct-2-ene-2-carboxylate] showed an IC50 of 1590 nM.

In turn, `NNC(=O)/C=C/C1=C(C(=O)O)N2C(=O)/C(=C/c3ccccn3)[C@H]2S(=O)(=O)C1` [Sodium; (R)-3-((E)-2-hydrazinocarbonyl-vinyl)-5,5,8-trioxo-7-[1-pyridin-2-yl-meth-(Z)-ylidene]-5lambda*6*-thia-1-aza-bicyclo[4.2.0]oct-2-ene-2-carboxylate] gave an IC50 of 390 nM.

For the compound `O=C(/C=C/C1=C(C(=O)O)N2C(=O)/C(=C/c3ccccn3)[C@H]2S(=O)(=O)C1)NC1CC1` [Sodium; (R)-3-((E)-2-cyclopropylcarbamoyl-vinyl)-5,5,8-trioxo-7-[1-pyridin-2-yl-meth-(Z)-ylidene]-5lambda*6*-thia-1-aza-bicyclo[4.2.0]oct-2-ene-2-carboxylate], the IC50 stood at 240 nM.

As for `CS(=O)(=O)C1=C(C(=O)O)N2C(=O)/C(=C/c3ccccn3)[C@H]2S(=O)(=O)C1` [Sodium; (R)-3-methanesulfonyl-5,5,8-trioxo-7-[1-pyridin-2-yl-meth-(Z)-ylidene]-5lambda*6*-thia-1-aza-bicyclo[4.2.0]oct-2-ene-2-carboxylate], the IC50 came out at 7.6 nM.

In the case of `O=C(O)C1=C(Cl)CS(=O)(=O)[C@@H]2/C(=C\c3ccccn3)C(=O)N12` [Sodium; (R)-3-chloro-5,5,8-trioxo-7-[1-pyridin-2-yl-meth-(Z)-ylidene]-5lambda*6*-thia-1-aza-bicyclo[4.2.0]oct-2-ene-2-carboxylate], the IC50 amounted to 1820 nM.
